Measurements reported in US9409976B2, “CDIM binding proteins and uses thereof” (IGM BIOSCIENCES, INC., priority 2012, dated 2016).
Where two headings read alike, the source gives them in different places.

Key:
B cells = experiment: Combination of agents with CDIM binding proteins, cytotoxicity to B cells; assay type: cell-based
[1] = tested on: CDIM antigen on human pro-B cell line NALM-6; experiment: Binding of CDIM binding proteins to CDIM antigen on NALM-6 cells, flow cytometry (MFI); conditions: 1 hour on ice, non-linear regression curve fit
Experimental: This example describes how the binding properties of the disclosed antibodies were investigated. The antibodies were prepared by affinity chromatography. In FIG. 6A, the human pro-B cell line, NALM-6, which expresses the CDIM antigen on the cell surface was stained with the series of recombinant IgM antibodies. The antibodies were used to determine the dose response beginning at 20 μg/tube diluted stepwise by 2, to a final concentration at 0.039 μg. Cells were stained in a 100 μl volume in 3% FBS/PBS on ice for 1 hour followed by a subsequent staining with DyLight-488 conjugated anti-human IgM (Jackson Immuno), 1 μg/ml for 20 minutes at 4 C.
Analysis of CDIM binding was performed on FACScan flow cytometer using CellQuest analysis software. Results are shown as raw data points with Mean Fluorescence Intensity (MFI) on Y-axis and concentration of primary antibody (μg/100 μl) on X-axis.
The data were re-analyzed using GraphPad analysis program to fit the results using non-linear regression curve fit. EC50 (μg/100 μl) for each antibody was (a) 10.6 for IGM1, (b) 2.2 for IGM23, (c) 2.2 for IGM34, and (d) 1.7 for IGM36.

[2] = tested on: human pro-B cell line NALM-6; experiment: Cytotoxicity resulting from cellular binding, propidium iodine uptake; assay type: cell-based; conditions: NALM-6 cells, viability after 1 hour of staining
Experimental: This example describes how the cytotoxicity of the CDIM binding proteins was investigated. The human pro-B cell line NALM-6 was stained identically as described in FIG. 6A above. In FIG. 6B, cell killing was evaluated by measuring cell viability after 1 hour of staining. […] Results are shown as raw data with % viability on Y-axis and concentration (μg/100 μl) on X-axis.
Identical results were graphed using GraphPad analysis program and data fit using non-linear regression curve fitting. The EC50 was calculated for each antibody using the same approach described above. EC50 (μg/100 μl) for each antibody was (a) 3.0 for IGM1, (b) 0.6 for IGM 23, (c) 0.6 for IGM34, and (d) 0.3 for IGM36.

[3] = combination with CDIM binding proteins

Molecule | Effect of combination with CDIM binding proteins (B cells; [3]) | further results
COc1cc2c(c(OC)c1OC)-c1ccc(OC)c(=O)cc1[C@@H](NC(C)=O)CC2 [Colchisine] | Synergistic Effect | 
CC(=O)O[C@H]1C(=O)[C@@]2(C)[C@H]([C@H](OC(=O)c3ccccc3)[C@]3(O)C[C@H](OC(=O)[C@H](O)[C@@H](NC(=O)c4ccccc4)c4ccccc4)C(C)=C1C3(C)C)[C@]1(OC(C)=O)CO[C@@H]1C[C@@H]2O [Paclitaxel (Taxol), Paclitaxel] | Possible/Undermined | 
COC(=O)Nc1nc2ccc(C(=O)c3cccs3)cc2[nH]1 [Nocodazole] | Synergistic Effect | 
COc1cc([C@@H]2c3cc4c(cc3[C@@H](O[C@@H]3O[C@@H]5CO[C@@H](C)O[C@H]5[C@H](O)[C@H]3O)[C@H]3COC(=O)[C@H]23)OCO4)cc(OC)c1O [Etoposide (VP-16), Etoposide] | Additive Effect | 
CC[C@]1(O)C[C@H]2CN(CCc3c([nH]c4ccccc34)[C@@](C(=O)OC)(c3cc4c(cc3OC)N(C=O)[C@H]3[C@@](O)(C(=O)OC)[C@H](OC(C)=O)[C@]5(CC)C=CCN6CC[C@]43[C@@H]65)C2)C1 [Vincristine] | Synergistic Effect | Effect of combination with CDIM binding proteins (B cells; combination with CDIM binding proteins, listed as vincristine): enhanced degree of cytotoxicity to B cells when compared to the additive effect of each single agent alone
COc1cccc2c1C(=O)c1c(O)c3c(c(O)c1C2=O)C[C@@](O)(C(C)=O)C[C@@H]3O[C@H]1C[C@H](N)[C@H](O)[C@H](C)O1 [Daunorubicin] |  | Effect of combination with CDIM binding proteins (B cells): Additive Effect
Nc1ccn([C@@H]2O[C@H](CO)[C@@H](O)[C@@H]2O)c(=O)n1 [Ara-C (Cytarabine), Cytarabine] | Additive Effect | 
IGM1: IgM; heavy chain H1 (SEQ ID NO:28) with lambda light chain (SEQ ID NO:50) (antibody) heavy: QVQLQQWGAGLLKPSETLSLTCAVYGGSFSGYYWSWIRQPPGKGLEWIGEINHSGSTNYNPSLKSRVTISVDTSKNQFSLKLSSVTAADTAVYYCARGRMAWGASVNFDYWGQGTLVTVSSGSASAPTLFPLVSCENSPSDTSSVAVGCLAQDFLPDSITFSWKYKNNSDISSTRGFPSVLRGGKYAATSQVLLPSKDVMQGTDEHVVCKVQHPNGNKEKNVPLPVIAELPPKVSVFVPPRDGFFGNPRKSKLICQATGFSPRQIQVSWLREGKQVGSGVTTDQVQAEAKESGPTTYKVTSTLTIKESDWLSQSMFTCRVDHRGLTFQQNASSMCVPDQDTAIRVFAIPPSFASIFLTKSTKLTCLVTDLTTYDSVTISWTRQNGEAVKTHTNISESHPNATFSAVGEASICEDDWNSGERFTCTVTHTDLPSPLKQTISRPKGVALHRPDVYLLPPAREQLNLRESATITCLVTGFSPADVFVQWMQRGQPLSPEKYVTSAPMPEPQAPGRYFAHSILTVSEEEWNTGETYTCVVAHEALPNRVTERTVDKSTGKPTLYNVSLVMSDTAGTCY light: DIQMTQSPSTLSASVGDRVTITCTGTSSDVGGYNYVSWYQQHPGKAPKLMIYGVSNRFSGSKSGNTASLTISGLAAEDEADYYCSSYTSSSTLVVFGGGTKLTVLGQPKAAPSVTLFPPSSEELQANKATLVCLISDFYPGAVTVAWKADSSPVKAGVETTTPSKQSNNKYAASSYLSLTPEQWKSHRSYSCQVTHEGSTVEKTVAPTECS |  | EC50 of CDIM binding (MFI) [1]: 10.6 μg/100 μl; EC50 of cytotoxicity (% viability) [2]: 3.0 μg/100 μl
